Test results taken from US9187784B2, “EphA4 is a disease modifier in motor neuron disease” (VIB VZW, priority 2011, dated 2015).
Marks after values point to notes of the source that are not given here.

Columns and labels:
Format in all cases: in vivo
[1] = test system: non-transgenic or wild-type SOD1-expressing fish; assay: axonal and total body length in non-transgenic or wild-type SOD1-expressing fish; details: zebrafish, average ± s.e.m.
Experimental: Y-axes show motor axon length of non-transgenic (black bar) or SOD1WT-expressing (white bar) zebrafish embryos, injected with either atg-RTK2 (shaded bars, Panel A) or atg-RTK1 morpholino (shaded bars, Panel B). Ctr-RTK2 and ctr-RTK1 were used as controls. Error bars are s.e.m.
To identify disease-modifying genes in ALS in an unbiased way, knockdown screening was performed in the mutant SOD1 zebrafish model (reference 13), using a library of 303 translation blocking morpholinos (atg-mo), of which 58 were targeting genes presumed to be neuronally expressed (according to the NCBI database) and 245 randomly chosen targeting genes. […] The morpholino yielding the highest rescue in two separate experiments was studied further. It targets zebrafish receptor tyrosine kinase 2 (RTK2, also known as epha4b), which has 67% identity and 80% homology to the human orthologue EPHA4. Knockdown of RTK2 in fish expressing mutant SOD1 completely and dose-dependently rescued the motor axonopathy (both axonal length and aberrant branching) caused by three different SOD1 mutations: A4V, G93A and G37R (FIG. 1, Panels A-F; Table 2). […] Receptor tyrosine kinase 1 (RTK1, also known as epha4a), the fish paralogue of RTK2, has 83% identity and 92% homology to human EPHA4. RTK1 knockdown was dose-dependently and equally protective as RTK2 knockdown (FIG. 1, Panel G; Table 4). […]

[2] = test system: TDP43A315T embryos; assay: mutant TDP-43-induced motor axonopathy in zebrafish embryos
Experimental: FIG. 14: Inhibiting EphA4 signaling rescues motor axonopathies induced by overexpression of mutant TDP-43 and knockdown of Smn. Y-axes show motor axon length of zebrafish embryos (30 hpf) expressing TDP^WT (black bar) or TDP^A315T (white bar) (Panels A, B) or with unaltered (black bar) or reduced expression levels of Smn (white bar) (Panels C, D). Smn knockdown was established by injection of 3 ng (Panel C) or 6 ng (Panel D) atg-smn morpholino. Ctr-smn morpholino was injected as control. RTK1 signaling was inhibited by injection of 3 ng atg-RTK1 morpholino (shaded bars) (Panels A, C) or by treatment with C1 (500 μM, shaded bars) (Panels B, D). Injection of ctr-RTK1 morpholino and application of a 1/250 dilution of DMSO were used as control. ANOVA and Bonferroni's multiple comparison tests were used for statistical analysis: TDP^A315T/atg-RTK1 (n=24) vs. TDP^A315T/ctr-RTK1 (n=34, p=7.86×10^−5, Panel A), TDP^A315T/C1 (n=21) vs. TDP^A315T/DMSO (n=21, p=0.045, Panel B), atg-smn/atg-RTK1 (n=35) vs. atg-smn/ctr-RTK1 (n=35, p=4.93×10^−8, Panel C), atg-smn/C1 (n=91) vs. atg-smn/DMSO (n=105, p=1.27×10^−6, Panel D). Error bars are s.e.m.
Mann-Whitney test was used to determine significance between TDPA315T/ctr-RTK1 (4.5 ng) vs. TDPA315T/atg-RTK1 (4.5 ng, * p=0.001) and between TDPA315T/control vs. TDPA315T/C1 (° p=0.029). Control=1/250 DMSO and C1=500 μM.
(§1) A morpholino database of translation-blocking morpholinos (atg-mo) was used to perform a morpholino-based knockdown screening in a zebrafish model for ALS.^13 The standard control morpholino (5′-[…]-′3) (SEQ ID NO:4), provided by Gene tools, was used as control. Three nanograms of morpholino were co-injected with […] of SOD1 mRNA and the effect of gene knockdown on the mutant SOD1-induced axonopathy analyzed. Each morpholino was tested in two separate experiments. Only morphologically normal embryos were included for further analysis. Overexpression of SOD1 or TDP-43, applied to validate the protective morpholino, was established by injection of 1.76 ng SOD1 mRNA or 1.43 ng TDP-43 mRNA, respectively. Antisense morpholinos to knockdown zebrafish RTK1, RTK2, Smn and their five base pair-mismatch control morpholinos were developed by Gene tools: atg-RTK1 (5′-[…]-′3) (SEQ ID NO:5), atg-RTK2 (5′-[…]-[…]-′3) (SEQ ID NO:6), splice-RTK2 (5′-[…]-[…]-′3) (SEQ ID NO:7) and atg-smn (5′-[…]-3′) (SEQ ID NO:8). Compound 1 (2,5-dimethylpyrrolyl benzoic acid, Matrix Scientific) dissolved in DMSO was added to the water of 6-hpf-old zebrafish embryos.

[3] = test system: zebrafish embryos; assay: Toxicity analysis of Compound 1 in zebrafish embryos (total body shape); details: for death: read at 30 hpf; for malformed / normal: zebrafish, in vivo, 24 h
Experimental: Different concentrations of C1 were dissolved in the water of 6 hpf-old zebrafish embryos. At 30 hpf, toxicity (%) of C1 was investigated by analyzing total body shape of the embryos.
as §1

Row | Compound | body length [1] | % affected embryos ([2]; TDPA315T embryos, morpholino 4.5 ng) | % affected embryos ([2]; TDPWT embryos, morpholino 4.5 ng) | effect on outgrowth deficit and aberrant branching induced by mutant TDP-43 ([2]; zebrafish embryos) | death ([3]; C1 250 μM in water from 6 hpf) | death ([3]; C1 500 μM in water from 6 hpf) | death ([3]; C1 750 μM in water from 6 hpf) | death ([3]; C1 1000 μM in water from 6 hpf) | malformed ([3]; 250 μM) | normal ([3]; 250 μM) | malformed ([3]; 500 μM) | normal ([3]; 500 μM) | malformed ([3]; 750 μM) | normal ([3]; 750 μM) | malformed ([3]; 1000 μM) | normal ([3]; 1000 μM) | % affected embryos ([2]; TDPA315T embryos, C1 500 μM) | % affected embryos ([2]; TDPWT embryos, C1 500 μM)
1 | 5′-CTGTGAACACAAGCGCAGCCATTGG-′3 (all phosphorodiamidate morpholino (PMO)) [atg-RTK1] | 2.61±0.01 mm | 11* (43) % | 9 (42) % | rescued the outgrowth deficit and aberrant branching induced by mutant TDP-43 | – | – | – | – | – | – | – | – | – | – | – | – | – | –
2 | Cc1ccc(C)n1-c1ccc(C(=O)O)c(O)c1 [Compound C1] | – | – | – | – | 6.12% | 2.80% | 11.2% | 20% | 5.10% | 88.77% | 3.74% | 93.45% | 12.93% | 75.86% | 80% | 0% | 25° (16) % | 33 (36) %
